Measured values taken from ChEMBL document CHEMBL1201862, “PubChem BioAssay data set” (2004).
Blank lines part the entries; values can stand above or below the molecule they belong to. Activity calls are given as the source filed them. Rule as the data show it, for most assays here: actives have a measured IC50 and inactives only a lower limit.

Tests used:
Cytochrome P450 2D6 = Cytochrome P450 2D6 (Homo sapiens, UniProt P10635); experiment: qHTS Assay for Inhibitors and Substrates of Cytochrome P450 2D6. [Related pubchem assays: 410 ]; assay type: ADME; conditions: read-out: Potency
Tumor necrosis factor = Tumor necrosis factor (Homo sapiens, UniProt P01375); experiment: analog potency on TNFa NF-kB signaling – cell-based, revised, SAR follow-up (AID 2337); assay type: functional
[1] = molecular target: Nucleotide-binding oligomerization domain-containing protein 2 (Homo sapiens, UniProt Q9HC29); experiment: PubChem AID 2334; assay type: functional
HEK293 = experiment: cells; conditions: Homo sapiens;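 also: cells exposed to compound for 14 hours overnight before viability readout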
[2] = molecular target: T1, Nucleotide-binding oligomerization domain-containing protein 1 (Homo sapiens, UniProt Q9Y239); experiment: blockers of NOD1 pathway activity – revised, SAR follow-up (AID 2333); assay type: functional
T1 sequence (Q9Y239 whole entry): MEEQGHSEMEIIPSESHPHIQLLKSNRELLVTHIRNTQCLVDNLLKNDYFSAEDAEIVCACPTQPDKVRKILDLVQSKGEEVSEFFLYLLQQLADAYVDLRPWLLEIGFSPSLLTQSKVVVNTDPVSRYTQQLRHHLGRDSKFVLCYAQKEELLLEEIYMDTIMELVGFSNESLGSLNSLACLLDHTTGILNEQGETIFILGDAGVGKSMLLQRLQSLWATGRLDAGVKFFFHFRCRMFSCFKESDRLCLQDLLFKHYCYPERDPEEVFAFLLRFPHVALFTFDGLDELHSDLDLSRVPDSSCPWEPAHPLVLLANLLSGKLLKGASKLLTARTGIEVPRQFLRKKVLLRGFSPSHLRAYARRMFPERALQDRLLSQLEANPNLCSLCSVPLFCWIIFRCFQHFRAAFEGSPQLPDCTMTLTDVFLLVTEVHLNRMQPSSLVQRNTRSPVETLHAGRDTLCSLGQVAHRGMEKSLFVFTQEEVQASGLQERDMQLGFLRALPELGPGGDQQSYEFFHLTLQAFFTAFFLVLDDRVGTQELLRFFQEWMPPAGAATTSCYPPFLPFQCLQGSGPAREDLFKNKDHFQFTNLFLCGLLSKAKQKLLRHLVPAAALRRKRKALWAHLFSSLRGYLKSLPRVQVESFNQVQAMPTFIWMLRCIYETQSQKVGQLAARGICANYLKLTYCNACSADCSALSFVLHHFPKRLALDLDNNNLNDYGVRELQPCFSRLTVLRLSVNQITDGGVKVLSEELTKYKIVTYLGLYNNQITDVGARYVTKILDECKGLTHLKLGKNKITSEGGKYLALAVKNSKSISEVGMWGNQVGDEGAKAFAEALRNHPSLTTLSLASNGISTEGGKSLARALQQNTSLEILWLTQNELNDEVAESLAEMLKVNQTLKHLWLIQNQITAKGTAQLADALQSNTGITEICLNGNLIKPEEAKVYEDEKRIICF

[3] = molecular target: T2, Alkaline phosphatase, tissue-nonspecific isozyme (Homo sapiens, UniProt P05186)
T2 sequence (P05186 whole entry): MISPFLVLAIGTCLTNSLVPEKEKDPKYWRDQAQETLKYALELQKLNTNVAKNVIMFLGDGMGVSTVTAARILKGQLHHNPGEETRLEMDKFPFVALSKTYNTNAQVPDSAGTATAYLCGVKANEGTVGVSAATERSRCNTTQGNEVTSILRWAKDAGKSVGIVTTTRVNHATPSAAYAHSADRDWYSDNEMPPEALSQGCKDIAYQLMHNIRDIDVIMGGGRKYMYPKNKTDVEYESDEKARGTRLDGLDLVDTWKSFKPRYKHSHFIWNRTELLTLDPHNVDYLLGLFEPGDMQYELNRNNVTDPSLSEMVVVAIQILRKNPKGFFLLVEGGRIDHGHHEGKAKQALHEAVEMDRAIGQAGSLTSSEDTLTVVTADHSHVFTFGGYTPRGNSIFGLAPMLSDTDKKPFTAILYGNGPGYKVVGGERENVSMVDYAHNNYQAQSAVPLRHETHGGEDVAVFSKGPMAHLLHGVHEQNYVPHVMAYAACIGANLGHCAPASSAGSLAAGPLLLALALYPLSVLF

[4] = molecular target: Dual specificity protein phosphatase 3 (Homo sapiens, UniProt P51452); experiment: inhibition constants for human DUSP3 – biochemical, colorimetric, SAR follow-up (AID 2004)
Sequence of Dual specificity protein phosphatase 3 (P51452 whole entry): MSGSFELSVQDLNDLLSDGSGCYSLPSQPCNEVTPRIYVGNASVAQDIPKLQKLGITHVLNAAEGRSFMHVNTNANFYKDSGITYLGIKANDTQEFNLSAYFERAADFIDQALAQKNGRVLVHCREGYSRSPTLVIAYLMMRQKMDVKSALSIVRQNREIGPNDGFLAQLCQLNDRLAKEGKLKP

Sequence of Cytochrome P450 2D6 (P10635 whole entry): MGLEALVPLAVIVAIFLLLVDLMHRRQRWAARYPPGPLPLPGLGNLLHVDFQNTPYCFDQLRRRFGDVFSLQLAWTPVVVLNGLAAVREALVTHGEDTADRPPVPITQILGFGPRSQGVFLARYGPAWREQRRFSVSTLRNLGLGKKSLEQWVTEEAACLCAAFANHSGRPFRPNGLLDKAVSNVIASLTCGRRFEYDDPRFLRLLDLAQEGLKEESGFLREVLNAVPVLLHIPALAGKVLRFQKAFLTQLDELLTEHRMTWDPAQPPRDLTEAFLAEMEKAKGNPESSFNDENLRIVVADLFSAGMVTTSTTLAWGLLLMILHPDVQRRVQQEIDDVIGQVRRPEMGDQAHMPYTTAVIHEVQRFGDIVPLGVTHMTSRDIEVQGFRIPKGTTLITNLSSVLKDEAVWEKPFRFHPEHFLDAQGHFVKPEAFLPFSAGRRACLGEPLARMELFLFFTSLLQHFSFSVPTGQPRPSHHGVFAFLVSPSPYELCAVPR
Sequence of Tumor necrosis factor (P01375 whole entry, the tested form may be a part): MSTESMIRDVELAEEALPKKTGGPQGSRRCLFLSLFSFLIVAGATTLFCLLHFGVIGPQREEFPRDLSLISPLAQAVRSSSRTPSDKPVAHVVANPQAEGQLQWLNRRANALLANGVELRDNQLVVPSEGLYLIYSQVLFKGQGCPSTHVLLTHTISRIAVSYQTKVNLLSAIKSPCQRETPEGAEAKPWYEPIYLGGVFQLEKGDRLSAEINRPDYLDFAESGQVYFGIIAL
Sequence of Nucleotide-binding oligomerization domain-containing protein 2 (Q9HC29 whole entry, the tested form may be a part): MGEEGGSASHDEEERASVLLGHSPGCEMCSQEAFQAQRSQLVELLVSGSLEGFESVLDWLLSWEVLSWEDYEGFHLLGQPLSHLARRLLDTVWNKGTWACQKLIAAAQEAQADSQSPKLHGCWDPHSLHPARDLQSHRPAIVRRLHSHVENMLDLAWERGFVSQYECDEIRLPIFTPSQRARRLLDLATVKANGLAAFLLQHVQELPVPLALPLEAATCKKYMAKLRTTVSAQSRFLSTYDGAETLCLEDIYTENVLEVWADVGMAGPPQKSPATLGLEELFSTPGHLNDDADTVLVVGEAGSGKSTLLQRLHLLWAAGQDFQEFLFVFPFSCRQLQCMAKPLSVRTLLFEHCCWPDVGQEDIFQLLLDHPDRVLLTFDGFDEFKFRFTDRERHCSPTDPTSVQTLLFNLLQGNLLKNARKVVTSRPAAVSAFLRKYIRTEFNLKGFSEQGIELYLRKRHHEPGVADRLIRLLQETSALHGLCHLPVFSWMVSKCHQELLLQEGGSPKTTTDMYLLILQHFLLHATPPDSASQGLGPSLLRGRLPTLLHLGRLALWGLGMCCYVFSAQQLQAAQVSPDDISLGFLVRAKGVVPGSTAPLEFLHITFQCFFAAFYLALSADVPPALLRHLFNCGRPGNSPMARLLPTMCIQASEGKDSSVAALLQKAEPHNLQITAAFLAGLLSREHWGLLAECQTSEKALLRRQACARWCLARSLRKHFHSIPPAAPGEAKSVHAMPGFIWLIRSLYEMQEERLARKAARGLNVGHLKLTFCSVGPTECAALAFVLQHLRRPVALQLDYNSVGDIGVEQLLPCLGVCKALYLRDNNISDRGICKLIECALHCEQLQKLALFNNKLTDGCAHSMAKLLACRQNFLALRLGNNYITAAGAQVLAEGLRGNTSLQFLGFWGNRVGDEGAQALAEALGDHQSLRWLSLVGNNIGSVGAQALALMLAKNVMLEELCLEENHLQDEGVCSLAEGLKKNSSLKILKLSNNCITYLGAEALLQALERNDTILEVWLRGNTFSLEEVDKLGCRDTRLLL

AC50 (Cytochrome P450 2D6): 3.98 µM (inconclusive)
Compound: CCCCc1nc2c(c3c1CC(C)OC3)CN(CCC(C)C)CC2 (configuration not stated)

Compound: CCCCNCC(=O)Nc1sc2c(c1C(=O)O)CCCC2
IC50 (Tumor necrosis factor): > 20 µM (inactive) | IC50 [1]: > 20 µM (inactive) | IC50 (HEK293): > 20 µM (inactive) | IC50 [2]: > 20 µM (inactive)

EC50 [3]: > 100 µM (not active)
Compound: Cn1c(=O)c2c(nc(N/N=C/c3cccs3)n2Cc2ccc(Br)cc2)n(C)c1=O

Compound: CCOC(=O)c1c(N)sc2c1CCN(Cc1ccccc1)C2 [TINORIDINE]
Ki [4]: 20.5 µM (inactive)
